According to patent US20250161477A1, “NOVEL METHODS OF THERAPY” (BIVICTRIX LIMITED, priority 2022, published 2025):

B1: BVX04-a0094-AB4A-1 (CD33xCD56 Bi-Fab ADC) (bispecific antibody, not shown: large carriers)
heavy 1: EVQLVQSGAEVKKPGSSVKVSCKASGYTITDSNIHWVRQAPGQSLEWIGYIYPYNGGTDYNQKFKNRATLTVDNPTNTAYMELSSLRSEDTAFYYCVNGNPWLAYWGQGTLVTVSS
light 1: DIQLTQSPSTLSASVGDRVTIICRASESLDNYGIRFLTWFQQKPGKAPKLLMYAASNQGSGVPSRFSGSGSGTEFTLTISSLQPDDFATYYCQQTKEVPWSFGQGTKLEIK
heavy 2: EVQLVQSGAEVKKPGSSVKVSCKASGGTFTGYYMHWVRQAPGQGLEWMGWINPNSGGTNYAQKFQGRVTMTRDTSISTAYMELSRLRSDDTAVYYCARDLSSGYSGYFDYWGQGTLVTVSS
light 2: DVVMTQSPLSLPVTPGEPASISCRSSQSLLHSNGYNFLDWYLQKPGQSPQLLIYLGSNRASGVPDRFSGSGSGTDFTLKISRVEADDVGVYYCMQSLQTPWTFGHGTKVEIK

Legend:
[1] = test system: Human CD34+ progenitor cells; test: Colony forming unit assay: differentiation of healthy CD34+ progenitor cells to myeloid CD33+ cells
Experimental: Methocult was thawed at 4° C. overnight. Methocult was shaken and allowed to stand at room temperature until all the bubbles had dispersed and aliquoted into 3 mL aliquots. A 6-point dose titration was prepared for each antibody in PBS to achieve the following final concentrations: 10, 3, 1, 0.1, 0.01 and 0 nM. Enough of each dilution was prepared to test activity across duplicate wells. Each titration was pipetted into a 1.5 mL tube. CD34+ cells were thawed at 37° C. and suspended in 2% FBS IMDM. 300 μL of suspension containing 3000 CD34+ cells were pipetted into each 1.5 mL tube containing antibody titration and the solution gently was mixed by pipetting. […] The total volume of antibody dilution added to the cells was 30 μL in all conditions. The cell suspension/conjugate mix was pipetted into a 3 mL aliquot of Methocult, vortexed for 5 seconds and allowed to stand at room temperature until the bubbles had disappeared. Using an 18-gauge blunt needle and 6 mL syringe, 1 mL of cell/conjugate/Methocult mix was transferred to a well of a Smart dish and each condition was tested across duplicate wells. Each plate was rocked to ensure the Methocult covered the entire well surface evenly and then placed in a 37° C., 5% CO2 incubator. The colonies were counted on day 9 and day 14 and the data plotted in Excel.

human CD56 (human) = human CD56 (human) (UniProt P13591); test: cell-based or functional assay
human CD33 (human) = human CD33 (human) (UniProt P20138); test: cell-based or functional assay
Chain of human CD33 (human) (P20138 18-364 R69G limits assumed): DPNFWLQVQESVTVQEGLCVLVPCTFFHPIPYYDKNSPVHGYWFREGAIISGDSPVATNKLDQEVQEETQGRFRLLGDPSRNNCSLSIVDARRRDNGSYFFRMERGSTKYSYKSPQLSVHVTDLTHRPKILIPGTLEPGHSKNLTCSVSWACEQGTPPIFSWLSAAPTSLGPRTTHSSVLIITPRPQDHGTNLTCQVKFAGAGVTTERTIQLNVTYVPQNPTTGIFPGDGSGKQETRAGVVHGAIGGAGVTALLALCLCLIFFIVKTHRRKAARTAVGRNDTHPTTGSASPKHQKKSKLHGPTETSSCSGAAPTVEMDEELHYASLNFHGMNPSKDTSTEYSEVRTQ

Chain of human CD56 (human) (P13591 other isoform, or with tags, fused parts or gaps limits assumed): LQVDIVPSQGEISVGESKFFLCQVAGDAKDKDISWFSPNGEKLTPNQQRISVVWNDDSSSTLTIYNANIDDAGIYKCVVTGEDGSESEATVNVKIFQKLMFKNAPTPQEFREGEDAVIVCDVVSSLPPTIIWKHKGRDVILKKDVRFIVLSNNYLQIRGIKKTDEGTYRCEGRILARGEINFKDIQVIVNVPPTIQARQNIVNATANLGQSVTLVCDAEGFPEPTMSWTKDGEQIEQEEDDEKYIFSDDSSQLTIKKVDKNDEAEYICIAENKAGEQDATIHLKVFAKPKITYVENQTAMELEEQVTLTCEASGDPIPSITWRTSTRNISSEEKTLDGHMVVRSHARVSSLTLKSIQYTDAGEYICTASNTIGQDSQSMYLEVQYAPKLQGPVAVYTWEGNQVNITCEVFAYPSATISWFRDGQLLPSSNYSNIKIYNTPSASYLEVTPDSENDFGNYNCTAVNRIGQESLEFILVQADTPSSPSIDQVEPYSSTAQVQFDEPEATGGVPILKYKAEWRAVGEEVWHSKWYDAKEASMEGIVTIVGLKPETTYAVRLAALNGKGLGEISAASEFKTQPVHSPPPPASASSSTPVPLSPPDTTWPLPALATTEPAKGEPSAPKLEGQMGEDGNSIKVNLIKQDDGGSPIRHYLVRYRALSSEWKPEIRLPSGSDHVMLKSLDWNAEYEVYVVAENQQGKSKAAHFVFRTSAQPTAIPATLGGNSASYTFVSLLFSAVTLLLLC

Molecule | Av. % of Colonies Surviving at 10 nM vs Control ([1]; 9 days of incubation, Experiment 1) | Av. % of Colonies Surviving at 10 nM vs Control ([1]; 9 days of incubation, Experiment 2) | Av. % of Colonies Surviving at 10 nM vs Control ([1]; 14 days of incubation, Experiment 1) | Av. % of Colonies Surviving at 10 nM vs Control ([1]; 14 days of incubation, Experiment 2) | Mean IC50, cell kill assay (WST-1, 96 h) on KASUMI-3 cells (CD33+/CD56+) (human CD56 (human)) | Mean IC50, cell kill assay (WST-1, 96 h) on KE-37 cells (CD33-/CD56+) (human CD56 (human)) | Mean IC50, cell kill assay (WST-1, 96 h) on KASUMI-3 cells (CD33+/CD56+) (human CD33 (human)) | Mean IC50, cell kill assay (WST-1, 96 h) on SET-2 cells (CD33+/CD56-) (human CD33 (human))
GEMTUZUMAB: Gemtuzumab (In House), CD33 monospecific antibody, unconjugated | 102.33% | 113.3% | 100.5% | 82.8% | – | – | – | –
B1 | – | – | – | – | 0.061 nM | > 30 nM | 0.061 nM | > 30 nM
